Reference: patent publication US12281122B1, “PI3K inhibitors” (Cogent Biosciences, Inc., priority 2023, dated 2025)

Key:
[1] = test system: T47D (PI3Kα-H1047R) cell line; test: HTRF phospho-AKT(S473) cell assay in T47D cells; format: cell-based, human; details: Homo sapiens, 2 hours compound incubation
Summary of the method: (§1)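 T47D: RPMI + 10% FBS + 0.2 units/mL insulin, top 5 μM. SKBR3: McCoy's 5A + 10% FBS, top 10 μM, 70 ng/ml PDGF-BB last 15 min. Both: 12-pt 1:3, 2 h, 37° C, max 0.5% DMSO; HTRF pAKT(S473); IC50.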

[2] = test system: SKBR3 (PI3Kα-Wild Type) cell line; test: HTRF phospho-AKT(S473) cell assay in SKBR3 cells; format: cell-based, human; details: Homo sapiens, SK-BR-3, 2 hours compound incubation, PDGF-BB stimulated
Summary of the method: as §1

[3] = HTRF phospho-AKT(S473), T47D (PI3Kα-H1047R) cells
[4] = HTRF phospho-AKT(S473), SKBR3 (PI3Kα-Wild Type) cells
[5] = T47D (PI3Kα-H1047R) cells, HTRF phospho-AKT(S473)
[6] = SKBR3 (PI3Kα-Wild Type) cells, HTRF phospho-AKT(S473)

Compound	IC50 [1, 3]	IC50 [2, 4]	other results
Cc1cc([C@@H](C)Nc2ccc(Cl)nc2C(=O)NS(C)(=O)=O)c2nc(N3C[C@@H]4[C@H](C3)[C@H]4c3cc4cccnn4n3)n(C)c(=O)c2c1 [Compound 620, 6-chloro-3-(((R)-1-(3,6-dimethyl-4-oxo-2-((1R,5S,6R)-6-(pyrazolo[1,5-b]pyridazin-2-yl)-3-azabicyclo[3.1.0]hexan-3-yl)-3,4-dihydroquinazolin-8-yl)ethyl)amino)-N-(methylsulfonyl) picolinamide]	< 0.25 µM	1 to 5 µM	
Cc1cc([C@@H](C)Nc2ccc(Cl)nc2C(=O)NS(C)(=O)=O)c2nc(-c3ccc(OC4CCN(CC(F)(F)F)CC4)nc3)n(C)c(=O)c2c1 [Compound 846, (R)-6-chloro-3-((1-(3,6-dimethyl-4-oxo-2-(6-((1-(2,2,2-trifluoroethyl)piperidin-4-yl)oxy)pyridin-3-yl)-3,4-dihydroquinazolin-8-yl)ethyl)amino)-N-(methylsulfonyl) picolinamide]			IC50 ([1]; T47D (PI3Kα-H1047R) cell line, phospho-AKT(S473) HTRF): 0.25 to 0.5 µM; IC50 ([2]; SKBR3 (PI3Kα-Wild Type) cell line, phospho-AKT(S473) HTRF): ≥ 5 µM
Cc1cc([C@@H](C)Nc2ccc(Cl)nc2C(=O)NS(C)(=O)=O)c2nc(N3[C@@H]4CC[C@H]3C[C@@H](n3ncc5ccccc53)C4)n(C)c(=O)c2c1 [Compound 696, 3-(((R)-1-(2-((1R,3R,5S)-3-(1H-indazol-1-yl)-8-azabicyclo[3.2.1]octan-8-yl)-3,6-dimethyl-4-oxo-3,4-dihydroquinazolin-8-yl)ethyl)amino)-6-chloro-N-(methylsulfonyl) picolinamide]	0.5 to 1 µM	≥ 5 µM	
Cc1cc([C@@H](C)Nc2ccc(Cl)nc2C(=O)NS(C)(=O)=O)c2nc(N3C[C@@H]4[C@H](C3)[C@H]4c3nnn(C)n3)n(C)c(=O)c2c1 [Compound 496, 6-chloro-3-(((R)-1-(3,6-dimethyl-2-((1R,5S,6R)-6-(2-methyl-2H-tetrazol-5-yl)-3-azabicyclo[3.1.0]hexan-3-yl)-4-oxo-3,4-dihydroquinazolin-8-yl)ethyl)amino)-N-(methylsulfonyl) picolinamide]	< 0.25 µM	1 to 5 µM	
Cc1cc([C@@H](C)Nc2ccc(Cl)nc2C(=O)NS(C)(=O)=O)c2nc(N3CC[C@H](Nc4ncc(Cl)cn4)C3)n(C)c(=O)c2c1 [Compound 738, 6-chloro-3-(((R)-1-(2-((S)-3-((5-chloropyrimidin-2-yl)amino)pyrrolidin-1-yl)-3,6-dimethyl-4-oxo-3,4-dihydroquinazolin-8-yl)ethyl)amino)-N-(methylsulfonyl) picolinamide]	0.25 to 0.5 µM	≥ 5 µM	
Cc1cc([C@@H](C)Nc2ccc(Cl)nc2C(=O)NS(C)(=O)=O)c2nc(N3CCC(n4nncc4C)CC3)n(C)c(=O)c2c1 [Compound 626, (R)-6-chloro-3-((1-(3,6-dimethyl-2-(4-(5-methyl-1H-1,2,3-triazol-1-yl)piperidin-1-yl)-4-oxo-3,4-dihydroquinazolin-8-yl)ethyl)amino)-N-(methylsulfonyl) picolinamide]	0.25 to 0.5 µM	1 to 5 µM	
Cc1cc([C@@H](C)Nc2ccc(Cl)nc2C(=O)NS(C)(=O)=O)c2nc(N3CCC(c4ccn(C(F)(F)F)n4)CC3)n(C)c(=O)c2c1 [Compound 445, (R)-6-chloro-3-((1-(3,6-dimethyl-4-oxo-2-(4-(1-(trifluoromethyl)-1H-pyrazol-3-yl)piperidin-1-yl)-3,4-dihydroquinazolin-8-yl)ethyl)amino)-N-(methylsulfonyl) picolinamide]	0.25 to 0.5 µM	≥ 5 µM	
COc1ccccc1-n1ncc2c1CN(c1nc3c([C@@H](C)Nc4ccc(Cl)nc4C(=O)NS(C)(=O)=O)cc(C)cc3c(=O)n1C)C2 [Compound 326, (R)-6-chloro-3-((1-(2-(1-(2-methoxyphenyl)-4,6-dihydropyrrolo[3,4-c]pyrazol-5(1H)-yl)-3,6-dimethyl-4-oxo-3,4-dihydroquinazolin-8-yl)ethyl)amino)-N-(methylsulfonyl) picolinamide]			IC50 [1, 5]: < 0.25 µM; IC50 [2, 6]: 1 to 5 µM
COc1ccc(C2CCN(c3nc4c([C@@H](C)Nc5ccc(Cl)nc5C(=O)NS(C)(=O)=O)cc(C)cc4c(=O)n3C)CC2)cn1 [Compound 700, (R)-6-chloro-3-((1-(2-(4-(6-methoxypyridin-3-yl)piperidin-1-yl)-3,6-dimethyl-4-oxo-3,4-dihydroquinazolin-8-yl)ethyl)amino)-N-(methylsulfonyl) picolinamide]	0.25 to 0.5 µM	≥ 5 µM	
Cc1cc([C@@H](C)Nc2ccc(Cl)nc2C(=O)NS(C)(=O)=O)c2nc(N3CCC(c4c(C)cnn4C)CC3)n(C)c(=O)c2c1 [Compound 427, (R)-6-chloro-3-((1-(2-(4-(1,4-dimethyl-1H-pyrazol-5-yl)piperidin-1-yl)-3,6-dimethyl-4-oxo-3,4-dihydroquinazolin-8-yl)ethyl)amino)-N-(methylsulfonyl) picolinamide]			IC50 [1, 5]: < 0.25 µM; IC50 [2, 6]: 1 to 5 µM
Cc1cc([C@@H](C)Nc2ccc(Cl)nc2C(=O)NS(C)(=O)=O)c2nc(N3CCC(c4ccn(C(F)F)n4)CC3)n(C)c(=O)c2c1 [Compound 413, (R)-6-chloro-3-((1-(2-(4-(1-(difluoromethyl)-1H-pyrazol-3-yl)piperidin-1-yl)-3,6-dimethyl-4-oxo-3,4-dihydroquinazolin-8-yl)ethyl)amino)-N-(methylsulfonyl) picolinamide]			IC50 [1, 5]: < 0.25 µM; IC50 [2, 6]: 1 to 5 µM
Cc1cc([C@@H](C)Nc2ccc(Cl)nc2C(=O)NS(=O)(=O)NC2CC2)c2nc(N3Cc4ccc(F)cc4C3)n(C)c(=O)c2c1 [Compound 152, (R)-6-chloro-N-(N-cyclopropylsulfamoyl)-3-((1-(2-(5-fluoroisoindolin-2-yl)-3,6-dimethyl-4-oxo-3,4-dihydroquinazolin-8-yl)ethyl)amino)picolinamide]			IC50 [1, 5]: 0.25 to 0.5 µM; IC50 [2, 6]: ≥ 5 µM
Cc1cc([C@@H](C)Nc2ccc(Cl)nc2C(=O)NS(C)(=O)=O)c2nc(-c3ccc(C4(C#N)CC4)cc3)n(C)c(=O)c2c1 [Compound 773, (R)-6-chloro-3-((1-(2-(4-(1-cyanocyclopropyl)phenyl)-3,6-dimethyl-4-oxo-3,4-dihydroquinazolin-8-yl)ethyl)amino)-N-(methylsulfonyl) picolinamide]	< 0.25 µM	1 to 5 µM	
Cc1cc([C@@H](C)Nc2ccc(Cl)nc2C(=O)NS(C)(=O)=O)c2nc(N3CCC(n4cccn4)CC3)n(C)c(=O)c2c1 [Compound 199, (R)-3-((1-(2-(4-(1H-pyrazol-1-yl)piperidin-1-yl)-3,6-dimethyl-4-oxo-3,4-dihydroquinazolin-8-yl)ethyl)amino)-6-chloro-N-(methylsulfonyl) picolinamide]			IC50 [1, 5]: < 0.25 µM; IC50 [2, 6]: 1 to 5 µM
CC(=O)N1CCN(c2ccc(-c3nc4c([C@@H](C)Nc5ccc(Cl)nc5C(=O)NS(C)(=O)=O)cc(C)cc4c(=O)n3C)cc2F)CC1(C)C [Compound 804, (R)-3-((1-(2-(4-(4-acetyl-3,3-dimethylpiperazin-1-yl)-3-fluorophenyl)-3,6-dimethyl-4-oxo-3,4-dihydroquinazolin-8-yl)ethyl)amino)-6-chloro-N-(methylsulfonyl) picolinamide]	< 0.25 µM	≥ 5 µM	

Now from value to molecule, other results behind:

IC50 [1, 3]	IC50 [2, 4]	Compound	other results
0.25 to 0.5 µM	≥ 5 µM	Cc1cc([C@@H](C)Nc2ccc(Cl)nc2C(=O)NS(C)(=O)=O)c2nc(N3CCC4(CCCN(c5ccn(C)n5)C4)C3)n(C)c(=O)c2c1 (stereo partly drawn) [Compound 708, 6-chloro-3-(((1R)-1-(3,6-dimethyl-2-(7-(1-methyl-1H-pyrazol-3-yl)-2,7-diazaspiro[4.5]decan-2-yl)-4-oxo-3,4-dihydroquinazolin-8-yl)ethyl)amino)-N-(methylsulfonyl) picolinamide]	
0.25 to 0.5 µM	≥ 5 µM	COc1cc(O[C@H]2CCN(c3nc4c([C@@H](C)Nc5ccc(Cl)nc5C(=O)NS(C)(=O)=O)cc(C)cc4c(=O)n3C)C2)c(F)cn1 [Compound 611, 6-chloro-3-(((R)-1-(2-((S)-3-((5-fluoro-2-methoxypyridin-4-yl)oxy)pyrrolidin-1-yl)-3,6-dimethyl-4-oxo-3,4-dihydroquinazolin-8-yl)ethyl)amino)-N-(methylsulfonyl) picolinamide]	
0.25 to 0.5 µM	1 to 5 µM	COc1nc(C)cc(N2CCN(c3nc4c([C@@H](C)Nc5ccc(Cl)nc5C(=O)NS(C)(=O)=O)cc(C)cc4c(=O)n3C)CC2)n1 [Compound 729, (R)-6-chloro-3-((1-(2-(4-(2-methoxy-6-methylpyrimidin-4-yl)piperazin-1-yl)-3,6-dimethyl-4-oxo-3,4-dihydroquinazolin-8-yl)ethyl)amino)-N-(methylsulfonyl) picolinamide]	
< 0.25 µM	1 to 5 µM	[2H]C([2H])([2H])n1ncc2cc(-c3nc4c([C@@H](C)Nc5ccc(Cl)nc5C(=O)NS(C)(=O)=O)cc(C)cc4c(=O)n3C)ccc21 [Compound 818, (R)-6-chloro-3-((1-(3,6-dimethyl-2-(1-(methyl-d3)-1H-indazol-5-yl)-4-oxo-3,4-dihydroquinazolin-8-yl)ethyl)amino)-N-(methylsulfonyl) picolinamide]	
0.5 to 1 µM	1 to 5 µM	Cc1cc([C@@H](C)Nc2ccc(Cl)nc2C(=O)NS(C)(=O)=O)c2nc(-c3ccc4cn[nH]c4c3)n(C)c(=O)c2c1 [Compound 834, (R)-3-((1-(2-(1H-indazol-6-yl)-3,6-dimethyl-4-oxo-3,4-dihydroquinazolin-8-yl)ethyl)amino)-6-chloro-N-(methylsulfonyl) picolinamide]	
